Assay results from ChEMBL document CHEMBL1130623, “Novel cytokine release inhibitors. Part II: Steroids” (Bioorg Med Chem Lett, 1998).
pIC50: −log10 of the molar value.

Columns and labels:
[1] = species on record: Homo sapiens; experiment: (§1) Compound was evaluated for inhibition of Interleukin (IL1-beta) release in human monocytes.; type: functional
[2] = species on record: Homo sapiens; experiment: Compound was evaluated for percentage inhibition of Interleukin (IL1-beta) release in human monocytes at a concentration of 1000 nM.; type: functional
[3] = as §1; type: functional, cell-based
[4] = species on record: Homo sapiens; experiment: Compound was evaluated for percentage inhibition of Interleukin (IL1-beta) release in human monocytes at a concentration of 3000 nM.; type: functional

Compound | pIC50 [1] | inhibition at 1 µM [2] [%] | further results
COC(=O)[C@]1(C)CC[C@]2(C)CC[C@]3(C)C4=CCc5c(cc(OC(C)=O)c(OC(C)=O)c5C)[C@]4(C)CC[C@@]3(C)[C@@H]2C1 [PRISTIMEROL DIACETATE] | 7.10 | – | –
CC(=O)OC1=C[C@@]2(C)C(=CC1=O)C=C[C@H]1[C@@H]3CC[C@H](OC(C)=O)[C@@]3(C)CC[C@@H]12 | 5.52 | – | –
C[C@]12CCc3c(ccc4cc(O)ccc34)[C@@H]1CCC2=O [EQUILENIN] | – | 27 | –
C[C@]12CC[C@@H]3c4ccc(O)cc4C=C[C@H]3[C@@H]1CCC2=O | – | 1 | –
CC1=C(O)C(=O)C=C2C1=CC=C1[C@@]2(C)CC[C@@]2(C)[C@@H]3C[C@](C)(C(=O)O)CC[C@]3(C)CC[C@]12C [CELASTROL] | – | – | pIC50 [3]: 7.40
C[C@]12CC[C@H]3C(=CCc4cc(O)ccc43)[C@@H]1CCC2=O [EQUILIN] | – | -11 | –
C[C@]12CC[C@H]3[C@@H](C=CC4=CC(=O)C(O)=C[C@@]43C)[C@@H]1CC[C@@H]2O | 5.52 | – | –
CC(=O)Oc1cc2c(c(C)c1OC(C)=O)[C@H]1CC[C@]3(C)[C@@H](OC(C)=O)CC[C@H]3[C@@H]1C=C2 | 6.82 | – | –
C[C@]12CC[C@H]3[C@@H](CCC4=CC(=O)C(O)=C[C@@]43C)[C@@H]1CC[C@@H]2O | – | – | inhibition at 3 µM [4]: 36%
